The results in this text go back to patent publication US20260297060A1, “COMPOUNDS FOR THE DEGRADATION OF MUTANT BRAF” (C4 THERAPEUTICS, INC., priority 2023, published 2026).

Where two headings read alike, the source gives them in different places.

A word on the GI50: it is the concentration giving 50% growth inhibition. The low end stands for greater sensitivity of the cells, the high end for lower sensitivity of the cells.

The target of one experiment is T1, BRAF V600E (Homo sapiens, UniProt P15056+Q96SW2, V600E).
T1 construct: knock-in of the HiBiT tag to the endogenous BRAF V600E locus; host or cells: A375.10 (A375 clonal line, CRISPR HiBiT knock-in at the endogenous BRAF V600E locus)
T1 sequence (P15056 whole entry V600E): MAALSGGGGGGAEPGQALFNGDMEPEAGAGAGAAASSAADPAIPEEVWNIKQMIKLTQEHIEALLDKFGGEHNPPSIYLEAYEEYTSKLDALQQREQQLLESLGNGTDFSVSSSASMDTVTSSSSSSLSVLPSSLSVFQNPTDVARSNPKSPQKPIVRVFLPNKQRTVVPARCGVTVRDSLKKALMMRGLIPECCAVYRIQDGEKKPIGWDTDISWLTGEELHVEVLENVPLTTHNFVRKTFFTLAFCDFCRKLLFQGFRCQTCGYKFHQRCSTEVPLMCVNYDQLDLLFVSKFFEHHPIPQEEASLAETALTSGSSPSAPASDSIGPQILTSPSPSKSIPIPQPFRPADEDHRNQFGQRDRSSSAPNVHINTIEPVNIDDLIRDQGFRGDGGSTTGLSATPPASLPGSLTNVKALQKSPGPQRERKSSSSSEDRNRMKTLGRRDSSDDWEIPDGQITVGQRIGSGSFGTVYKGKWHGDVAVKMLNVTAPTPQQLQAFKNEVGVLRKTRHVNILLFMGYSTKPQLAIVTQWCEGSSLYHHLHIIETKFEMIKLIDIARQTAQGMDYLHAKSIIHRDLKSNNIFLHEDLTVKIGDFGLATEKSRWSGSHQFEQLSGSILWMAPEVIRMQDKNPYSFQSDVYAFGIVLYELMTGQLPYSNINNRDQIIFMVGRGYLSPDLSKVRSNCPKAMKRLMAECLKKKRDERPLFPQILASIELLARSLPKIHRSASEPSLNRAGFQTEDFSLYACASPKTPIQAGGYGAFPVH
T1 sequence (Q96SW2 whole entry): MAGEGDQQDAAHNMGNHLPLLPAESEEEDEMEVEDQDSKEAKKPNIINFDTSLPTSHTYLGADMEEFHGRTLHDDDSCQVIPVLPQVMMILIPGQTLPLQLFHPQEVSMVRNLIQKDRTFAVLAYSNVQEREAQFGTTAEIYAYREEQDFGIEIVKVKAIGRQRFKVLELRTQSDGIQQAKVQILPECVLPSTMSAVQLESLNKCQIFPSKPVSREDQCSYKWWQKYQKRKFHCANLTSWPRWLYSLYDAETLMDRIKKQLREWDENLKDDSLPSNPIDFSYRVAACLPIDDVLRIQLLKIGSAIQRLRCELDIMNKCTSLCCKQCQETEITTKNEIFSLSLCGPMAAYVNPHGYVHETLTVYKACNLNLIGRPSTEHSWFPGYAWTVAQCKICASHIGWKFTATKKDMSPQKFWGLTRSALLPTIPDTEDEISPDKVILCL
T1 sequence (Q16531 whole entry partner): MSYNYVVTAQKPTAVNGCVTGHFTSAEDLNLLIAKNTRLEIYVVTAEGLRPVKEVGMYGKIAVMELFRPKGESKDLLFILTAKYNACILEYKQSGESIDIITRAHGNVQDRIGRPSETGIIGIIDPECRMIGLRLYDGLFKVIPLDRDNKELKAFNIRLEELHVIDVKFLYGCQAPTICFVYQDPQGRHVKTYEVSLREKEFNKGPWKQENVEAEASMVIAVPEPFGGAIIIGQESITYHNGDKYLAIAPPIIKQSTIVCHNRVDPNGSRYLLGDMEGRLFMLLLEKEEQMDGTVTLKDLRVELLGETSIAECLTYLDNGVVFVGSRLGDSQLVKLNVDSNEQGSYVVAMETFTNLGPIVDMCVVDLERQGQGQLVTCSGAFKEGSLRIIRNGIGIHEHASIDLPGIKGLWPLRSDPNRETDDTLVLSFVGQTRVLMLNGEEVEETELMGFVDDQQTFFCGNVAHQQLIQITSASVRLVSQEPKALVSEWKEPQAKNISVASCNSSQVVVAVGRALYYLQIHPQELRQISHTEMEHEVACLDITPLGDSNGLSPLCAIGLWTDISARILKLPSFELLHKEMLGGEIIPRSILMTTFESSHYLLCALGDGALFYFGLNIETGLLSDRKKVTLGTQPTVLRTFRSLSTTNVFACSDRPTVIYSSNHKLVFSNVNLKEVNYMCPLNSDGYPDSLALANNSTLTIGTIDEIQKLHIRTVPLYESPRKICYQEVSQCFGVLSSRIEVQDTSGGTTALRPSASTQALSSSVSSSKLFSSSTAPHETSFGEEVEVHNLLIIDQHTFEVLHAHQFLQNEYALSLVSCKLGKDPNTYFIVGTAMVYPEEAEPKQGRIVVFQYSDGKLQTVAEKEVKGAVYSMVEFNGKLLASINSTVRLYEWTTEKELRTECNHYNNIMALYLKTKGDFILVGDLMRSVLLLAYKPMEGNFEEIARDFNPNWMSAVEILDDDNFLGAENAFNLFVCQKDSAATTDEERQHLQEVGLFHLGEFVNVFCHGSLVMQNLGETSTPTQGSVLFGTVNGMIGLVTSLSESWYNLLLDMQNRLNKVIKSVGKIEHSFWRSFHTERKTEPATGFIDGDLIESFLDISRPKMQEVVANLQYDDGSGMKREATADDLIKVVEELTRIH
Briefly: BRAF V600E HiBiT Degradation Assay. The experiment is classed as cell-based. The following applies: A375.10 cells, BRAF V600E. The protocol:
Compounds of this invention were tested for degradation of mutant BRAF V600E using the HiBiT assay, a luminescence-based assay for quantification of cellular protein levels using the Nano-Glo® HiBiT Lytic Detection System (Catalog No. N3050, Promega, Madison, WI USA). This assay utilizes the HiBiT tag on a protein of interest, which creates a luminescent signal in the presence of a complementing peptide and its substrate, the quantification of which is proportional to the amount of HiBiT-tagged protein in the cell.
The cell line A375, which is homozygous for the BRAF V600E mutation, was purchased from ATCC (Catalog No. CRL-1619, Manassas, VA, USA). A375 cells were engineered to express HiBiT tagged BRAF V600E by CRISPR knock-in of the HiBiT tag to the endogenous BRAF V600E locus, followed by selection of a clonal population containing the appropriate knock-in (referred to here as cell line A375.10). A375.10 cells were maintained at 37° C. in an atmosphere of 5% CO2 in Dulbecco's modified Eagle Medium (DMEM) with high glucose (Catalog No. 11965092), supplemented with 10% fetal bovine serum (FBS; Catalog No. 10437036), and 10 mM HEPES (Catalog No. 15630130), all obtained from Thermofisher Scientific (Waltham, MA, USA). Cell culture flasks and 384-well microplates were acquired from VWR (Radnor, PA, USA).
Test compounds were prepared by dissolving neat compounds in DMSO (Catalog No. D8418, Sigma-Aldrich, Inc., St. Louis, MO, USA) to generate 10 mM stock solutions, which were serially diluted (half log) in DMSO to generate an 11-point dose series (1000× final treatment concentration) in a 384-Well Low Dead Volume Microplate (Catalog No. LP-0200, Labcyte, San Jose, CA, USA). Using the Echo 550 Acoustic Liquid Handler (Labcyte), 30 nL of serially diluted compound solutions were dispensed in duplicate to 384-well TC-treated microplates (Catalog No. 3571, Corning, Glendale, CA, USA) and 30 nL of DMSO was dispensed to control wells. A375.10 cells resuspended in growth media without phenol red (Catalog No. 21063-029, Thermofisher Scientific) were then added to 384-well plates containing the 11-point dose series of compounds in duplicate (maximum 10 μM concentration for final treatment) at a density of 12,000 cells/well in 30 μl. Plates were then spun briefly, and cells were incubated with compound at 37° C. for 2 hours, 6 hours, or 24 hours.
Following the appropriate treatment time, Nano-Glo® HiBiT Lytic Assay reagents were added to the cells per the manufacturer's instructions by adding 30 μl of reagent per well, and the luminescence signal was acquired by plate reader. Cells treated with DMSO only (no test compound treatment) were used as the negative control (N). Media only (no cells added) with Nano-Glo reagent addition was used as the background or positive control (P). The percent response of compound treated samples were calculated by subtracting out the background signal (P) and normalizing to the DMSO control (N) as follows.
% Response=100×(Treated Signal−Average (P))/(Average (N)−Average (P)).
Data were analyzed with a 4-parameter logistic fit to generate sigmoidal dose-response curves. The DC50 is the concentration of compound at which 50% of the cellular BRAF V600E has been degraded. The Emax, or maximum effect of each compound, represents the amount of residual protein remaining in the cell following compound treatment. The IP, or inflection point of the dose-response curve, is the concentration of compound at which 50% of the observed degradation response is achieved.
The experiment was conducted at least once for each compound. If the experiment was conducted multiple times, the data shown in the table is the average of the two or more experiments.
(With HiBiT, luminescence reflects the tagged protein that the partner subunit can reach.)

A further experiment deals with A375-NRAS^Q61K cells. Briefly: CTGlo Cell Viability Assay, A375-NRAS^Q61K (A375.11) cells, 96 hours. The following applies: A375.11 (A375-NRAS^Q61K) cells. The experiment is classed as cell-based, human. The protocol: Compounds of this invention were tested for their effect on the viability of A375-NRAS^Q61K cells by quantification of ATP using the CellTiter-Glo® 2.0 Cell Viability Assay (Catalog No. G9243, Promega, Madison, WI, USA). This assay produces a luminescent signal in the presence of ATP, which is indicative of metabolically active cells, making the luminescence readout proportional to the number of viable cells.
A375-NRAS^Q61K cells (harboring BRAF homozygous V600E mutation and NRAS homozygous Q61K mutation) were purchased from ATCC (Catalog No. CRL-1619IG-2, Manassas, VA, USA). A375-NRAS^Q61K cells (also referred to here as A375.11) were maintained at 37° C. in an atmosphere of 5% CO2 in Dulbecco's modified Eagle Medium (DMEM) with high glucose (Catalog No. 11965092), supplemented with 10% fetal bovine serum (FBS; Catalog No. 10437036), and 10 mM HEPES (Catalog No. 15630130), all obtained from Thermofisher Scientific (Waltham, MA, USA). Cell culture flasks and 384-well microplates were acquired from VWR (Radnor, PA, USA).
Test compounds were prepared by dissolving neat compounds in DMSO (Catalog No. D8418, Sigma-Aldrich, Inc., St. Louis, MO, USA) to generate 10 mM stock solutions, which were serially diluted (half log) in DMSO to generate an 11-point dose series (1000× final treatment concentration) in a 384-Well Low Dead Volume Microplate (Catalog No. LP-0200, Labcyte, San Jose, CA, USA). Using the Echo 550 Acoustic Liquid Handler (Labcyte), 50 nL of serially diluted compound solutions were dispensed in duplicate to 384-well TC-treated microplates (Catalog No. 3571, Corning, Glendale, CA, USA) and 50 nL of DMSO was dispensed to control wells. A375-NRAS^Q61K cells were resuspended in growth media and added to 384-well plates containing a […] of compounds in duplicate (maximum 10 μM concentration for final treatment) at a density of 250 cells/well in 50 μl. Cells were also plated to a 384-well plate with no compound treatment, to which CellTiter-Glo® reagent was added and luminescence was read right after plating to act as a baseline signal at time of plating (To). Plates treated with compound were then spun briefly, and cells were incubated with compound at 37° C. for 96 hours.
After 96 hours compound treatment, CellTiter-Glo® reagent was added to the cells at 25 μl per well and luminescence was read out on the PHERAstar plate reader (BMG Labtech, Ortenberg, Germany). Cells treated with DMSO only (no test compound treatment) were used as the negative control (N). DMSO treated cells with no CellTiter-Glo® reagent added were used as the background or positive control (P). Viability was determined by subtracting out the average background signal (P) and normalized to the average untreated signal (N) set at 100%.
Data were analyzed with a 4-parameter logistic fit to generate sigmoidal dose-response curves. The half-maximal inhibition of cell growth (GI50) is the concentration at which the fitted curve crosses 50%. The Emax, or maximum effect of each compound, represents the lowest % viability achieved following compound treatment.

The mark [1] stands for this setting: 2 hours, inflection point, read-out: HiBiT-Degradation A375.10 BRAF 2 hours IP.
The mark [2] stands for this setting: 2 hours, read-out: HiBiT-Degradation A375.10 BRAF 2 hours DC50.
[3] abbreviates: 2 hours, residual protein remaining.
The mark [4] stands for this setting: 6 hours, inflection point, read-out: HiBiT-Degradation A375.10 BRAF 6 hours IP.
[5] abbreviates: 6 hours, read-out: HiBiT-Degradation A375.10 BRAF 6 hours DC50.
Setting [6] is: HiBiT, 24 hours, read-out: HiBiT-Degradation A375.10 BRAF 24 hours DC50.
Where [7] appears, read: HiBiT, 24 hours, read-out: HiBiT-Degradation A375.10 BRAF 24 hours IP.
Setting [8] is: 6 hours, residual protein remaining, read-out: HiBiT-Degradation A375.10 BRAF 6 hours Emax.
Setting [9] is: HiBiT, 24 hours, read-out: HiBiT-Degradation A375.10 BRAF 24 hours Emax.

`CCN(C)S(=O)(=O)Nc1ccc(F)c(Oc2ccc3ncn(C4CC5(CCN(C6CCC(c7ccc(NC8CCC(=O)NC8=O)cc7F)CC6)CC5)C4)c(=O)c3c2)c1C#N` (single isomer, unassigned) [Compound 7, 6-[2-cyano-3-[[ethyl(methyl)sulfamoyl]amino]-6-fluoro-phenoxy]-3-[7-[4-[4-[(2,6-dioxo-3-piperidyl)amino]-2-fluoro-phenyl]cyclohexyl]-7-azaspiro[3.5]nonan-2-yl]-4-oxo-quinazoline]: the DC50 on BRAF V600E (setting [1]), at BRAF V600E (setting [2]), at BRAF V600E (setting [4]), at BRAF V600E (setting [5]), at BRAF V600E (setting [6]) and on BRAF V600E (setting [7]) was less than 1000 nM throughout. Besides, the “HiBiT-Degradation A375.10 BRAF 2 hours Emax” value at BRAF V600E (setting [3]) is listed as “*** (<=50%)”. Besides, the “HiBiT-Degradation A375.10 BRAF 6 hours Emax” value at BRAF V600E (6 hours, residual protein remaining) was “*** (<=50%)”. On BRAF V600E (HiBiT, 24 hours), the “HiBiT-Degradation A375.10 BRAF 24 hours Emax” value was “*** (<=50%)”. The same compound yielded a GI50 in the experiment on A375-NRAS^Q61K cells of less than 1000 nM. In the experiment with A375-NRAS^Q61K cells (lowest % viability achieved), the “CTGlo A375.11 96 hours Emax” value is listed as “*** (<=50%)”.

`CCN(C)S(=O)(=O)Nc1ccc(F)c(Oc2ccc3ncn(C4CC5(CCN(C6CCC(c7cc8c(cc7F)c(N7CCC(=O)NC7=O)nn8C)CC6)CC5)C4)c(=O)c3c2)c1C#N` (single isomer, unassigned) [Compound 9, 6-[2-cyano-3-[[ethyl(methyl)sulfamoyl]amino]-6-fluoro-phenoxy]-3-[7-[4-[3-(2,4-dioxohexahydropyrimidin-1-yl)-5-fluoro-1-methyl-indazol-6-yl]cyclohexyl]-7-azaspiro[3.5]nonan-2-yl]-4-oxo-quinazoline]: the DC50 at BRAF V600E (setting [1]), at BRAF V600E (setting [2]), at BRAF V600E (setting [4]), at BRAF V600E (setting [5]), at BRAF V600E (setting [6]) and on BRAF V600E (setting [7]) was less than 1000 nM throughout. Also, the “HiBiT-Degradation A375.10 BRAF 2 hours Emax” value at BRAF V600E (setting [3]) is reported as “*** (<=50%)”. Moreover, the Emax at BRAF V600E (setting [8]) and on BRAF V600E (setting [9]) was less than 50% each time. Further, in the experiment with A375-NRAS^Q61K cells, the 50% growth inhibitory concentration (GI50) is less than 1000 nM. In addition, the “CTGlo A375.11 96 hours Emax” value in the experiment on A375-NRAS^Q61K cells (lowest % viability achieved) was “*** (<=50%)”.

As for `CCN(C)S(=O)(=O)Nc1ccc(F)c(Oc2ccc3ncn(C4CCC5(CC4)CCN(C4CCC(c6ccc(NC7CCC(=O)NC7=O)cc6F)CC4)CC5)c(=O)c3c2)c1C#N` (single isomer, unassigned) [Compound 10, 9-[6-[2-cyano-3-[[ethyl(methyl)sulfamoyl]amino]-6-fluoro-phenoxy]-4-oxo-quinazolin-3-yl]-3-[4-[4-[(2,6-dioxo-3-piperidyl)amino]-2-fluoro-phenyl]cyclohexyl]-3-azaspiro[5.5]undecane], the values for the DC50 on BRAF V600E (setting [1]) and at BRAF V600E (setting [2]) were less than 1000 nM and more than 10000 nM, respectively. Also, on BRAF V600E (2 hours, residual protein remaining, read-out: HiBiT-Degradation A375.10 BRAF 2 hours Emax), the Emax lay within 50 to 90%. Also, in the experiment on A375-NRAS^Q61K cells, the GI50 lay within 1000 to 10000 nM. In addition, the “CTGlo A375.11 96 hours Emax” value in the experiment with A375-NRAS^Q61K cells (lowest % viability achieved) is “*** (<=50%)”.

Turning to `CCN(C)S(=O)(=O)Nc1ccc(F)c(Oc2ccc3ncn(C4CCC5(CC4)CCN(C4CCC(c6ccc(NC7CCC(=O)NC7=O)cc6F)CC4)CC5)c(=O)c3c2)c1C#N` (single isomer, unassigned) [Compound 11, 9-[6-[2-cyano-3-[[ethyl(methyl)sulfamoyl]amino]-6-fluoro-phenoxy]-4-oxo-quinazolin-3-yl]-3-[4-[4-[(2,6-dioxo-3-piperidyl)amino]-2-fluoro-phenyl]cyclohexyl]-3-azaspiro[5.5]undecane], the DC50 on BRAF V600E (setting [1]) and at BRAF V600E (setting [2]) was less than 1000 nM throughout. In addition, the “HiBiT-Degradation A375.10 BRAF 2 hours Emax” value at BRAF V600E (setting [3]) was “*** (<=50%)”. This compound registered a concentration for 50% growth inhibition (GI50) in the experiment with A375-NRAS^Q61K cells of more than 10000 nM. For the same compound, the Emax in the experiment on A375-NRAS^Q61K cells (Homo sapiens, 96 h, lowest % viability achieved) lay in the range of 50 to 90%.

Take `CCN(C)S(=O)(=O)Nc1ccc(F)c(Nc2ccc3ncn([C@H]4COC5(CCN(C6CCC(c7ccc(NC8CCC(=O)NC8=O)cc7F)CC6)CC5)C4)c(=O)c3c2F)c1C#N` (single isomer, unassigned) [Compound 98]: the DC50 on BRAF V600E (setting [4]), at BRAF V600E (setting [5]), on BRAF V600E (setting [6]) and at BRAF V600E (setting [7]) was less than 1000 nM throughout. Further, the Emax on BRAF V600E (setting [8]) and on BRAF V600E (setting [9]) was less than 50% in each case.
